{"source": "ChEMBL document CHEMBL5120867", "about": "“Hernandezine Regulates Proliferation and Autophagy-Induced Apoptosis in Melanoma Cells” (J Nat Prod, 2022)", "type_in_all_cases": "functional", "key": {"A-375 [1]": {"system": "A-375", "assay": "Induction of cell cycle arrest in human A-375 cells assessed as accumulation at G0/G1 phase incubated for 24 hrs by PI staining based flow cytometry analysis (reference value: 56.69 %)"}, "A-375 [2]": {"system": "A-375", "assay": "Induction of cell cycle arrest in human A-375 cells assessed as accumulation at G2/M phase incubated for 24 hrs by PI staining based flow cytometry analysis (reference value: 8.87 %)"}, "B16 [3]": {"system": "B16", "assay": "Induction of cell cycle arrest in mouse B16 cells assessed as accumulation at S phase incubated for 24 hrs by PI staining based flow cytometry analysis (reference value: 42.53 %)"}, "B16 [4]": {"system": "B16", "assay": "Induction of cell cycle arrest in mouse B16 cells assessed as accumulation at G2/M phase incubated for 24 hrs by PI staining based flow cytometry analysis (reference value: 0.88 %)"}, "B16 [5]": {"system": "B16", "assay": "Induction of cell cycle arrest in mouse B16 cells assessed as accumulation at G0/G1 phase incubated for 24 hrs by PI staining based flow cytometry analysis (reference value: 56.59 %)"}, "A-375 [6]": {"system": "A-375", "assay": "Induction of cell cycle arrest in human A-375 cells assessed as accumulation at S phase incubated for 24 hrs by PI staining based flow cytometry analysis (reference value: 34.44 %)"}}}
{"smiles": "N#C/C(=C\\c1ccc(O)c(O)c1)C(=O)NCc1ccccc1", "values": [{"measurement": "Activity", "setting": "A-375 [1]", "result": 61.48, "unit": "%"}, {"measurement": "Activity", "setting": "A-375 [2]", "result": 6.92, "unit": "%"}, {"measurement": "Activity", "setting": "B16 [3]", "result": 15.11, "unit": "%"}, {"measurement": "Activity", "setting": "B16 [4]", "result": 2.72, "unit": "%"}, {"measurement": "Activity", "setting": "B16 [5]", "result": 82.17, "unit": "%"}, {"measurement": "Activity", "setting": "A-375 [6]", "result": 31.61, "unit": "%"}]}
